From patent publication US20250049812A1, “Compounds that Inhibit Necroptosis and Their Preparation Methods” (SHANGHAI INSTITUTE OF ORGANIC CHEMISTRY, CHINESE ACADEMY OF …, priority 2021, published 2025) come the findings set out here.

One series has as its system Jurkat FADD (−/−) Cells. Put plainly: TNF-α induced necroptosis of Jurkat FADD-deficient cells (CellTiter-Glo cell survival). Format: cell-based, human. As to conditions: TNF-α induced necroptosis, Jurkat FADD-deficient cells, 13 hours, CellTiter-Glo, read-out: IC50. In outline: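 Cells in RPMI 1640 with 10% FBS were pretreated for 1 h at 37 °C with compound (12-point threefold series from 25 μM, or 0.5 μM, in triplicate). They were then stimulated with TNFα added as a 5 ng/mL solution for 13 h. Survival was read by luminescence.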
On the technique in general: ATP-based viability assays read luminescence as a measure of living cells.

Another series has as its target T1, RIPK1 (Homo sapiens, UniProt Q13546).
T1 sequence (Q13546 1-671): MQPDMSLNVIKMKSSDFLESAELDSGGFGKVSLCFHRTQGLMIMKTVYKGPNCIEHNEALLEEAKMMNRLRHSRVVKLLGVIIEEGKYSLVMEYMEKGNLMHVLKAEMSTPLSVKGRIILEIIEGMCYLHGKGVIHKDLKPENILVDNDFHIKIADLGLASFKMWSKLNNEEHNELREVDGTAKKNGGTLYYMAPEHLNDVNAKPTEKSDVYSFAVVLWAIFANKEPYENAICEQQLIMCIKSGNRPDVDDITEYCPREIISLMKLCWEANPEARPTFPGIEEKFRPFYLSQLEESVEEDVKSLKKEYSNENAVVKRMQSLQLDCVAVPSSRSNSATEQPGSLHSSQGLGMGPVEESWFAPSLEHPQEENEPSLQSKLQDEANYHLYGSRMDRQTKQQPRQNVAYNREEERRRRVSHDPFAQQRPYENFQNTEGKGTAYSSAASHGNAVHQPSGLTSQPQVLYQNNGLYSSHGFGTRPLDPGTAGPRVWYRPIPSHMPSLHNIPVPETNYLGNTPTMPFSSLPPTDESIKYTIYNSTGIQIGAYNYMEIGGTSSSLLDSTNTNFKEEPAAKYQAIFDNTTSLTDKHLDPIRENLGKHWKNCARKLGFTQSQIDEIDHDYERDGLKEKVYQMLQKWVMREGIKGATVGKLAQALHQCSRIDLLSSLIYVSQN
Put plainly: RIPK1 activity inhibition test (NANOSYN). The series is classed as biochemical. As to conditions: 12 concentrations, threefold dilution, 1% DMSO. As to the method:
The test compounds were dissolved in DMSO, with the highest concentration being […]. Subsequently, the concentrations were serially diluted threefold, with the DMSO concentration in the test medium maintained at 1%. IC50 values were calculated from data generated prom 12 tested concentrations.

Series [1] is described as follows: Study of oral pharmacokinetics in rats. The note with it: rat, in vivo, male SD rats, p.o.; for bioavailability: i.v. 1 mg/kg; for AUC(0-t): read-out: AUC0-8. The procedure: Healthy male SD rats were used as experimental animals. The intragastric (p.o.) administration was performed, with a dosage of 5 mg/kg or 15 mg/kg. Preparation: the compound was dissolved in a formulation made of 1% tween 80, 1% HMPC, and 98% water. The mixture was ground and shaken until the compound was uniformly distributed with a small particle size, and then 1 equivalent of methanesulfonic acid was added. The intravenous administration was performed with a dosage of 1 mg/kg. Preparation: 5% DMSO, 10% EtOH, 10% sulotol, and 75% physiological saline was added to the compound, and mixed well. Samples were taken at 5 minutes, 15 minutes, 30 minutes, 1 hour, 2 hours, 4 hours, 6 hours, and 8 hours after administration, and then the samples were analyzed using liquid chromatography tandem mass spectrometry (LC-MS/MS).

Usually IC50 stands for the concentration that gives 50% inhibition. For orientation: Cmax means the maximum level reached in the sampled fluid or tissue. As a reminder, the Tmax is the time from dosing to the highest level. The half-life is the time needed for the level to fall by half in the phase considered. Low values mean rapid decline, high ones slow decline. What is called bioavailability is dose-corrected exposure relative to a reference, in per cent. A lower bioavailability goes with little systemic uptake.

Read-outs that look alike come from different tables or passages of the source.

As to `CN1C(=O)C(NC(=O)c2nnc(Cc3ccccc3)[nH]2)Cn2cc(-c3ccnn3C)c3cccc1c32` (racemic) [T-16, (±)-5-benzyl-N-(1-methyl-7-(1-methyl-1H-pyrazol-5-yl)-2-oxy-1,2,3,4-tetrahydro-[1,4]diazepino [3,2,1-hi]indol-3-yl)-4H-1,2,4-triazole-3-carboxamide], the figures for the IC50 in the series with Jurkat FADD (−/−) Cells (Homo sapiens) and against RIPK1 were under 10 nM and 47.8 nM, respectively.

As to `CN1C(=O)C(NC(=O)c2nnc(Cc3ccccc3)[nH]2)Cc2cn(-c3cnn(C)c3)c3cccc1c23` (racemic) [T-34, (±)-5-benzyl-N-(1-methyl-6-(1-methyl-1H-pyrazol-4-yl)-2-oxo-2,3,4,6-tetrahydro-1H-azacyclo [4,3,2-cd]indol-3-yl)-4H-1,2,4-triazole-3-carboxamide], the IC50 in the series with Jurkat FADD (−/−) Cells (Homo sapiens) is under 10 nM; on RIPK1, 50.4 nM.

Regarding `CN1C(=O)C(NC(=O)c2nnc(Cc3ccccc3)[nH]2)Cc2cn(-c3ncccc3C(F)(F)F)c3cccc1c23` (racemic) [T-40, (±)-5-benzyl-N-(1-methyl-2-oxo-6-(3-(trifluoromethyl)pyridin-2-yl)-2,3,4,6-tetrahydro-1H-azacyclo [4,3,2-cd]indol-3-yl)-4H-1,2,4-triazole-3-carboxamide], the IC50 in the series on Jurkat FADD (−/−) Cells (Homo sapiens) was under 10 nM. In series [1] (5 mg/kg), the concentration peaked (Cmax) at 2230 ng/mL, the Tmax was found to be 1 h, the half-life is 3.26 h and the bioavailability stood at 31.4%. The AUC(0-t) in series [1] (5 mg/kg) was 9040 ng·h/mL.

Turning to `CN1C(=O)[C@@H](NC(=O)c2nnc(Cc3ccccc3)[nH]2)Cc2cn(-c3ncccc3C(F)(F)F)c3cccc1c23` [T-96, (S)-5-benzyl-N-(1-methyl-2-oxo-6-(3-(trifluoromethyl)pyridin-2-yl)-2,3,4,6-tetrahydro-1H-azacyclo [4,3,2-cd]indol-3-yl)-4H-1,2,4-triazole-3-carboxamide], the IC50 in the series with Jurkat FADD (−/−) Cells (Homo sapiens) is under 10 nM. On RIPK1, this compound gave an IC50 of 15.2 nM. In series [1] (5 mg/kg), the peak level (Cmax) was 1270 ng/mL, the Tmax was 1 h, the half-life is 3.76 h and the bioavailability is 28.2%. The AUC(0-t) in series [1] (5 mg/kg) was determined as 4900 ng·h/mL.

With `CN1C(=O)[C@@H](NC(=O)c2nnc(Cc3ccccc3)[nH]2)Cc2cn(-c3ncccc3OC(F)F)c3cccc1c23` [T-112, (S)-5-benzyl-N-(6-(3-(difluoromethoxy)pyridin-2-yl)-1-methyl-2-oxo-2,3,4,6-tetrahydro-1H-aza [4,3,2-cd]indol-3-yl)-4H-1,2,4-triazole-3-carboxamide], the IC50 in the series on Jurkat FADD (−/−) Cells (Homo sapiens) is under 10 nM. Moreover, the IC50 at RIPK1 came to 28.3 nM. Further, in series [1] (5 mg/kg), the Cmax is 494 ng/mL, the Tmax stood at 0.75 h, the half-life is 1.99 h and the bioavailability amounted to 18.3%. In addition, the AUC(0-t) in series [1] (5 mg/kg) was found to be 1700 ng·h/mL. In addition, in series [1] (15 mg/kg), the Cmax came out at 3930 ng/mL, the Tmax was 1.5 h, the half-life is 1.91 h and the bioavailability turned out to be 57.1%. The AUC(0-t) in series [1] (15 mg/kg) is 15900 ng·h/mL.

On to `CN1C(=O)[C@@H](NC(=O)c2nnc(Cc3ccccc3)[nH]2)Cn2cc(-c3cn(C)nc3C(F)(F)F)c3cccc1c32` [T-118, (S)-5-benzyl-N-(1-methyl-7-(1-methyl-3-(trifluoromethyl)-1H-pyrazol-4-yl)-2-oxo-1,2,3,4-tetrahydro-[1,4]diazepine [3,2,1-hi]indol-3-yl)-4H-1,2,4-triazole-3-carboxamide], for which the half-maximal inhibitory concentration (IC50) in the series on Jurkat FADD (−/−) Cells (Homo sapiens) is under 10 nM; at RIPK1 it was 24.9 nM.

`CN1C(=O)[C@@H](NC(=O)c2nnc(Cc3ccccc3)[nH]2)Cn2cc(-c3cnn(C4CCOCC4)c3)c3cccc1c32` [T-120, (S)-5-benzyl-N-(1-methyl-2-oxo-7-(1-(tetrahydro-2H-pyran-4-yl)-1H-pyrazol-4-yl)-1,2,3,4-tetrahydro-1,4-diazepine[3,2,1-hi]indol-3-yl)-4H-1,2,4-triazole-3-carboxamide]: the IC50 in the series with Jurkat FADD (−/−) Cells (Homo sapiens) was under 10 nM.

For `CN1C(=O)[C@@H](NC(=O)c2nnc(Cc3ccccc3)[nH]2)Cn2cc(-c3cnn(C4CC4)c3)c3cccc1c32` [T-121, (S)-5-benzyl-N-(7-(1-cyclopropyl-1H-pyrazol-4-yl)-1-methyl-2-oxo-1,2,3,4-tetrahydro-1,4-diazepino [3,2,1-hi]indol-3-yl)-4H-1,2,4-triazole-3-carboxamide], in the series on Jurkat FADD (−/−) Cells (Homo sapiens), the IC50 is 10 to 100 nM.

Take `CN1C(=O)[C@@H](NC(=O)c2nnc(Cc3ccccc3)[nH]2)Cn2cc(-c3cn(C)nc3-c3ccccc3)c3cccc1c32` [T-122, (S)-5-benzyl-N-(1-methyl-7-(1-methyl-3-phenyl-1H-pyrazol-4-yl)-2-oxo-1,2,3,4-tetrahydro-[1,4]diazepine [3,2,1-hi]indol-3-yl)-4H-1,2,4-triazole-3-carboxamide]: in the series on Jurkat FADD (−/−) Cells (Homo sapiens), the IC50 fell in the range of 10 to 100 nM.

On to `CN1C(=O)[C@@H](NC(=O)c2nnc(Cc3ccccc3)[nH]2)Cn2cc(-c3cncs3)c3cccc1c32` [T-123, (S)-5-benzyl-N-(1-methyl-2-oxo-7-(thiazol-5-yl)-1,2,3,4-tetrahydro-[1,4]diazepine [3,2,1-hi]indol-3-yl)-4H-1,2,4-triazole-3-carboxamide], for which, in the series with Jurkat FADD (−/−) Cells (Homo sapiens), the IC50 is 10 to 100 nM.

On to `CN1C(=O)[C@@H](NC(=O)c2nnc(Cc3ccccc3)[nH]2)Cn2cc(-c3cnn(CC(F)(F)F)c3)c3cccc1c32` [T-124, (S)-5-benzyl-N-(1-methyl-2-oxo-7-(1-(2,2,2-trifluoroethyl)-1H-pyrazol-4-yl)-1,2,3,4-tetrahydro-[1,4]diazepine [3,2,1-hi]indol-3-yl)-4H-1,2,4-triazole-3-carboxamide], for which the IC50 in the series with Jurkat FADD (−/−) Cells (Homo sapiens) lay within 10 to 100 nM.

As for `Cc1c(-c2cn3c4c(cccc24)N(C)C(=O)[C@@H](NC(=O)c2nnc(Cc4ccccc4)[nH]2)C3)cnn1C` [T-125, (S)-5-benzyl-N-(7-(1,5-dimethyl-1H-pyrazol-4-yl)-1-methyl-2-oxo-1,2,3,4-tetrahydro-1,4-diazepine [3,2,1-hi]indol-3-yl)-4H-1,2,4-triazole-3-carboxamide], the IC50 in the series with Jurkat FADD (−/−) Cells (Homo sapiens) is under 10 nM.

Regarding `CN1C(=O)[C@@H](NC(=O)c2nnc(Cc3ccccc3)[nH]2)Cn2cc(-c3cnc(Cl)n3C)c3cccc1c32` [T-126, (S)-5-benzyl-N-(7-(2-chloro-1-methyl-1H-imidazol-5-yl)-1-methyl-2-oxo-1,2,3,4-tetrahydro-1,4-diazepine [3,2,1-hi]indol-3-yl)-4H-1,2,4-triazole-3-carboxamide], the IC50 in the series with Jurkat FADD (−/−) Cells (Homo sapiens) was 10 to 100 nM.

`CN1C(=O)[C@@H](NC(=O)c2ncc(Cc3ccccc3)o2)Cn2cc(-c3cn(C)nc3C(F)(F)F)c3cccc1c32` [T-127, (S)-5-benzyl-N-(1-methyl-7-(1-methyl-3-(trifluoromethyl)-1H-pyrazol-4-yl)-2-oxo-1,2,3,4-tetrahydro-[1,4]diazepine [3,2,1-hi]indol-3-yl)oxazole-2-carboxamide]: the IC50 with Jurkat FADD (−/−) Cells (Homo sapiens) is under 10 nM.

Turning to “(±)-5-(3-(5-benzyl-4H-1,2,4-triazole-3-carboxamido)-1-methyl-2-oxo-1,2,3,4-tetrahydro-6H-azacyclo [4,3,2-cd] indol-6-yl)oxazole-4-carboxylate [T-98]”, in the series with Jurkat FADD (−/−) Cells, the IC50 was under 10 nM.
